This is an account of results in ChEMBL document CHEMBL1145879, “Phosphonooxymethyl prodrugs of the broad spectrum antifungal azole, ravuconazole: synthesis and biological properties” (Bioorg Med Chem Lett, 2003).

Values after ≈ are worked out from the molar mass of the structure shown.

Format in all cases: physicochemical
Data set [1] in a line: Aqueous solubility at pH 6.6.
A short description of data set [2]: Aqueous solubility at pH 7.
Data set [3] can be described thus: Aqueous solubility was determined. Particulars: buffer.

`C[C@@H](c1nc(-c2ccc(C#N)cc2)cs1)[C@](O)(Cn1c[n+](COP(=O)([O-])O)cn1)c1ccc(F)cc1F` yielded a solubility in data set [1] greater than 30 µg/mL.

Consider `C[C@@H](c1nc(-c2ccc(C#N)cc2)cs1)[C@@](Cn1cncn1)(OCOP(=O)(O)O)c1ccc(F)cc1F` [FOSRAVUCONAZOLE], for which, in data set [2], the solubility is greater than 30 µg/mL.

Regarding `C[C@@H](c1nc(-c2ccc(C#N)cc2)cs1)[C@](O)(Cn1cncn1)c1ccc(F)cc1F` [RAVUCONAZOLE], the solubility in data set [3] was 0.6 µg/mL (≈ 1.37 µM).
